Values of other authors in article PMC4138512 (Journal of computer-aided molecular design, 2014).

Test system: BoNT/A

Compound: O=C(/C=C/c1ccc(O)c(O)c1)O[C@H](C(=O)O)[C@H](OC(=O)/C=C/c1ccc(O)c(O)c1)C(=O)O [D-chicoric acid]
- Inhibition in combination with 2,4-dichlorocinnamic hydroxamate: nonmutually exclusive inhibition
- Type of inhibition of BoNT/A: partial inhibition

Compound: COC(=O)c1ccc(O)c2nc3c(C=O)c(O)cc(O)c3nc12 [lomofungin]
- Inhibition in combination with 2,4-dichlorocinnamic hydroxamate and chicoric acid: synergistic inhibition
- Type of inhibition of BoNT/A: non-competitive
